From US12173020B2, “New-type oxazolidinone compounds and preparation method therefor” (priority 2019, dated 2024)

Key:
[1] = tested on: vancomycin-resistant Enterococcus (VRE); assay: agar dilution method, inhibitory effect on VRE; assay type: cell-based; details: for MIC50: Enterococcus, read-out: Minimum inhibitory concentration (MIC50, μg/ml) VRE
From the text: (§1) In order to determine the antibacterial activity of these new oxazolidinone-based compounds, an agar dilution method was used to test the inhibitory effect on methicillin-resistant Staphylococcus aureus (MRSA) and vancomycin-resistant Enterococcus (VRE). The bacteria inhibition effect was expressed as minimum inhibitory concentration (MIC50, μg/ml) The test results are shown in the following table.

[2] = tested on: methicillin-resistant Staphylococcus aureus (MRSA); assay: agar dilution method, inhibitory effect on MRSA; assay type: cell-based; details: for MIC50: Staphylococcus aureus, read-out: Minimum inhibitory concentration (MIC50, μg/ml) MRSA
From the text: as §1

Row | MIC50 [1] [µg/mL] | MIC50 [2] [µg/mL] | Minimum inhibitory concentration (MIC50, μg/ml) VRE [1] [µg/mL] | Minimum inhibitory concentration (MIC50, μg/ml) MRSA [2] [µg/mL] | Compound
1 | 2 | 2 |  |  | Cn1nnc(-c2ccc(-c3ccc(N4C[C@H](COP(=O)(O)O)OC4=O)cc3F)cn2)n1 [Tedizolid phosphate, reference compound]
2 | 1.5 | 1.8 |  |  | CCn1nnc(-c2ccc(-c3ccc(N4C[C@H](CO)OC4=O)cc3F)cn2)n1.O=P(O)(O)O [compound 79, (R)-3-(3-fluoro-4-(6-(2-ethyl-2H-tetrazol-5-yl)pyridin-3-yl)phenyl)-5-(hydroxymethyl) oxazolidin-2-one phosphate]
3 | 1.9 | 1.9 |  |  | CCn1nnc(-c2ccc(-c3ccc(N4C[C@@H](CO)OC4=O)cc3F)cn2)n1.O=P(O)(O)O [compound 80, (S)-3-(3-fluoro-4-(6-(2-ethyl-2H-tetrazol-5-yl)pyridin-3-yl)phenyl)-5-(hydroxymethyl) oxazolidin-2-one phosphate]
4 | 1.2 | 1.2 |  |  | CCCn1nnc(-c2ccc(-c3ccc(N4C[C@H](CO)OC4=O)cc3F)cn2)n1.O=P(O)(O)O [compound 81, (R)-3-(3-fluoro-4-(6-(2-propyl-2H-tetrazol-5-yl)pyridin-3-yl)phenyl)-5-(hydroxymethyl) oxazolidin-2-one phosphate]
5 | 1.2 | 1.2 |  |  | CCCn1nnc(-c2ccc(-c3ccc(N4C[C@@H](CO)OC4=O)cc3F)cn2)n1.O=P(O)(O)O [compound 82, (S)-3-(3-fluoro-4-(6-(2-propyl-2H-tetrazol-5-yl)pyridin-3-yl)phenyl)-5-(hydroxymethyl) oxazolidin-2-one phosphate]
6 | 0.7 | 0.8 |  |  | O=C1O[C@@H](CO)CN1c1ccc(-c2ccc(-c3nnn(C4CC4)n3)nc2)c(F)c1.O=P(O)(O)O [compound 83, (R)-3-(3-fluoro-4-(6-(2-cyclopropyl-2H-tetrazol-5-yl)pyridin-3-yl)phenyl)-5-(hydroxymethyl) oxazolidin-2-one phosphate]
7 | 0.4 | 0.4 |  |  | O=C1O[C@H](CO)CN1c1ccc(-c2ccc(-c3nnn(C4CC4)n3)nc2)c(F)c1.O=P(O)(O)O [compound 84, (S)-3-(3-fluoro-4-(6-(2-cyclopropyl-2H-tetrazol-5-yl)pyridin-3-yl)phenyl)-5-(hydroxymethyl) oxazolidin-2-one phosphate]
8 | 0.2 | 0.2 |  |  | C=Cn1nnc(-c2ccc(-c3ccc(N4C[C@H](CO)OC4=O)cc3F)cn2)n1.O=P(O)(O)O [compound 85, (R)-3-(3-fluoro-4-(6-(2-vinyl-2H-tetrazol-5-yl)pyridin-3-yl)phenyl)-5-(hydroxymethyl) oxazolidin-2-one phosphate]
9 | 0.3 | 0.3 |  |  | C=Cn1nnc(-c2ccc(-c3ccc(N4C[C@@H](CO)OC4=O)cc3F)cn2)n1.O=P(O)(O)O [compound 86, (S)-3-(3-fluoro-4-(6-(2-vinyl-2H-tetrazol-5-yl)pyridin-3-yl)phenyl)-5-(hydroxymethyl) oxazolidin-2-one phosphate]
10 | 0.3 | 0.3 |  |  | CC(O)[C@H]1CN(c2ccc(-c3ccc(-c4nnn(C)n4)nc3)c(F)c2)C(=O)O1.O=P(O)(O)O (stereo partly drawn) [compound 87, (R)-3-(3-fluoro-4-(6-(2-methyl-2H-tetrazol-5-yl)pyridin-3-yl)phenyl)-5-(1-hydroxyethyl) oxazolidin-2-one phosphate]
11 | 0.5 | 0.5 |  |  | CC(O)[C@@H]1CN(c2ccc(-c3ccc(-c4nnn(C)n4)nc3)c(F)c2)C(=O)O1.O=P(O)(O)O (stereo partly drawn) [compound 88, (S)-3-(3-fluoro-4-(6-(2-methyl-2H-tetrazol-5-yl)pyridin-3-yl)phenyl)-5-(1-hydroxyethyl) oxazolidin-2-one phosphate]
12 | 1.3 | 1.3 |  |  | Cn1nnc(-c2ccc(-c3ccc(N4C[C@H](C(O)F)OC4=O)cc3F)cn2)n1.O=P(O)(O)O (stereo partly drawn) [compound 91, (R)-3-(3-fluoro-4-(6-(2-methyl-2H-tetrazol-5-yl)pyridin-3-yl)phenyl)-5-(hydroxyfluoromethyl) oxazolidin-2-one phosphate]
13 | 0.9 | 0.9 |  |  | Cn1nnc(-c2ccc(-c3ccc(N4C[C@@H](C(O)F)OC4=O)cc3F)cn2)n1.O=P(O)(O)O (stereo partly drawn) [compound 92, (S)-3-(3-fluoro-4-(6-(2-methyl-2H-tetrazol-5-yl)pyridin-3-yl)phenyl)-5-(hydroxyfluoromethyl) oxazolidin-2-one phosphate]
14 | 0.4 | 0.4 |  |  | CCn1nnc(-c2ccc(-c3ccc(N4C[C@H](C(O)F)OC4=O)cc3F)cn2)n1.O=P(O)(O)O (stereo partly drawn) [compound 101, (R)-3-(3-fluoro-4-(6-(2-ethyl-2H-tetrazol-5-yl)pyridin-3-yl)phenyl)-5-(hydroxyfluoromethyl) oxazolidin-2-one phosphate]
15 | 0.2 | 0.2 |  |  | CCn1nnc(-c2ccc(-c3ccc(N4C[C@@H](C(O)F)OC4=O)cc3F)cn2)n1.O=P(O)(O)O (stereo partly drawn) [compound 102, (S)-3-(3-fluoro-4-(6-(2-ethyl-2H-tetrazol-5-yl)pyridin-3-yl)phenyl)-5-(hydroxyfluoromethyl) oxazolidin-2-one phosphate]

The next lines start with the compound.

Row | Compound | MIC50 [1] [µg/mL] | MIC50 [2] [µg/mL] | Minimum inhibitory concentration (MIC50, μg/ml) VRE [1] [µg/mL] | Minimum inhibitory concentration (MIC50, μg/ml) MRSA [2] [µg/mL]
16 | CCC(O)[C@H]1CN(c2ccc(-c3ccc(-c4nnn(C)n4)nc3)c(F)c2)C(=O)O1.O=P(O)(O)O (stereo partly drawn) [compound 89, (R)-3-(3-fluoro-4-(6-(2-methyl-2H-tetrazol-5-yl)pyridin-3-yl)phenyl)-5-(1-hydroxypropyl) oxazolidin-2-one phosphate] | 0.4 | 0.4 |  | 
17 | CCC(O)[C@@H]1CN(c2ccc(-c3ccc(-c4nnn(C)n4)nc3)c(F)c2)C(=O)O1.O=P(O)(O)O (stereo partly drawn) [compound 90, (S)-3-(3-fluoro-4-(6-(2-methyl-2H-tetrazol-5-yl)pyridin-3-yl)phenyl)-5-(1-hydroxypropyl) oxazolidin-2-one phosphate] | 2 | 2 |  | 
18 | Cn1nnc(-c2ccc(-c3ccc(N4C[C@H](C(O)C(F)(F)F)OC4=O)cc3F)cn2)n1.O=P(O)(O)O (stereo partly drawn) [compound 93, (R)-3-(3-fluoro-4-(6-(2-methyl-2H-tetrazol-5-yl)pyridin-3-yl)phenyl)-5-(1-hydroxy-2-trifluoroethyl) oxazolidin-2-one phosphate] |  |  | 0.7 | 0.7
19 | Cn1nnc(-c2ccc(-c3ccc(N4C[C@@H](C(O)C(F)(F)F)OC4=O)cc3F)cn2)n1.O=P(O)(O)O (stereo partly drawn) [compound 94, (S)-3-(3-fluoro-4-(6-(2-methyl-2H-tetrazol-5-yl)pyridin-3-yl)phenyl)-5-(1-hydroxy-2-trifluoroethyl) oxazolidin-2-one phosphate] |  |  | 1.5 | 1.5
20 | CCn1nnc(-c2ccc(-c3ccc(N4C[C@H](C(O)C(F)(F)F)OC4=O)cc3F)cn2)n1.O=P(O)(O)O (stereo partly drawn) [compound 95, (R)-3-(3-fluoro-4-(6-(2-ethyl-2H-tetrazol-5-yl)pyridin-3-yl)phenyl)-5-(1-hydroxy-2-trifluoroethyl) oxazolidin-2-one phosphate] |  |  | 0.3 | 0.3
21 | CCn1nnc(-c2ccc(-c3ccc(N4C[C@@H](C(OP(=O)(O)O)C(F)(F)F)OC4=O)cc3F)cn2)n1 (stereo partly drawn) [compound 96, (S)-3-(3-fluoro-4-(6-(2-ethyl-2H-tetrazol-5-yl)pyridin-3-yl)phenyl)-5-(1-hydroxy-2-trifluoroethyl) oxazolidin-2-one phosphate] |  |  | 0.8 | 0.8
22 | CCn1nnc(-c2ccc(-c3ccc(N4C[C@H](C(C)O)OC4=O)cc3F)cn2)n1.O=P(O)(O)O (stereo partly drawn) [compound 97, (R)-3-(3-fluoro-4-(6-(2-ethyl-2H-tetrazol-5-yl)pyridin-3-yl)phenyl)-5-(1-hydroxyethyl) oxazolidin-2-one phosphate] | 1.1 | 1.1 |  | 
23 | CCn1nnc(-c2ccc(-c3ccc(N4C[C@@H](C(C)O)OC4=O)cc3F)cn2)n1.O=P(O)(O)O (stereo partly drawn) [compound 98, (S)-3-(3-fluoro-4-(6-(2-ethyl-2H-tetrazol-5-yl)pyridin-3-yl)phenyl)-5-(1-hydroxyethyl) oxazolidin-2-one phosphate] | 1.5 | 1.6 |  | 
24 | CCC(O)[C@H]1CN(c2ccc(-c3ccc(-c4nnn(CC)n4)nc3)c(F)c2)C(=O)O1.O=P(O)(O)O (stereo partly drawn) [compound 99, (R)-3-(3-fluoro-4-(6-(2-ethyl-2H-tetrazol-5-yl)pyridin-3-yl)phenyl)-5-(1-hydroxypropyl) oxazolidin-2-one phosphate] | 0.2 | 0.2 |  | 
25 | CCC(O)[C@@H]1CN(c2ccc(-c3ccc(-c4nnn(CC)n4)nc3)c(F)c2)C(=O)O1.O=P(O)(O)O (stereo partly drawn) [compound 100, (S)-3-(3-fluoro-4-(6-(2-ethyl-2H-tetrazol-5-yl)pyridin-3-yl)phenyl)-5-(1-hydroxypropyl) oxazolidin-2-one phosphate] | 0.3 | 0.2 |  | 
26 | CCCn1nnc(-c2ccc(-c3ccc(N4C[C@H](C(O)C(F)(F)F)OC4=O)cc3F)cn2)n1.O=P(O)(O)O (stereo partly drawn) [compound 103, (R)-3-(3-fluoro-4-(6-(2-propyl-2H-tetrazol-5-yl)pyridin-3-yl)phenyl)-5-(1-hydroxy-2-trifluoroethyl) oxazolidin-2-one phosphate] |  |  | 0.7 | 0.7
27 | CCCn1nnc(-c2ccc(-c3ccc(N4C[C@@H](C(O)C(F)(F)F)OC4=O)cc3F)cn2)n1.O=P(O)(O)O (stereo partly drawn) [compound 104, (S)-3-(3-fluoro-4-(6-(2-propyl-2H-tetrazol-5-yl)pyridin-3-yl)phenyl)-5-(1-hydroxy-2-trifluoroethyl) oxazolidin-2-one phosphate] |  |  | 0.5 | 0.5
